ChEMBL document CHEMBL4354838, “Synthesis and in Vitro and in Vivo Biological Evaluation of Tissue-Specific Bisthiazole Histone Deacetylase (HDAC) Inhibitors” (J Med Chem, 2020)
pIC50: −log10 of the molar value.

How the values were obtained:
[1] = target: Histone deacetylase 1 (Homo sapiens, UniProt Q13547); experiment: biochemical; format: cell-based
Description: Inhibition of recombinant His6/GST-tagged human HDAC1 expressed in baculovirus infected High5 insect cells using Ac-Lys-Tyr-Lys(epsilon-acetyl)-AMC as substrate after 24 hrs by fluorescence based assay

[2] = target: NAD-dependent protein deacetylase sirtuin-1 (Homo sapiens, UniProt Q96EB6)
Description: Inhibition of recombinant human N-terminal GST-tagged SIRT1 expressed in Escherichia coli using Ac-Arg-His-Lys-Lys(Ac)-AMC as susbtrate after 1 hr by fluorescence based assay

[3] = target: NAD-dependent protein deacetylase sirtuin-2 (Homo sapiens, UniProt Q8IXJ6)
Description: Inhibition of recombinant human N-terminal GST-tagged SIRT2 expressed in Escherichia coli using Ac-Arg-His-Lys-Lys(Ac)-AMC as susbtrate after 2 hrs by fluorescence based assay

[4] = target: NAD-dependent protein deacetylase sirtuin-3, mitochondrial (Homo sapiens, UniProt Q9NTG7)
Description: Inhibition of recombinant human N-terminal His-tagged SIRT3 expressed in Escherichia coli using Ac-Arg-His-Lys-Lys(Ac)-AMC as susbtrate after 2 hrs by fluorescence based assay

[5] = system: MCF7; experiment: cells; format: functional, cell-based; details: Homo sapiens, MCF7, 72 h
Description: Antiproliferative activity against human MCF7 cells assessed as reduction in cell growth after 72 hrs

[6] = system: HT-29; format: functional, Homo sapiens; details: at 50 mg/kg
Description: Antitumor activity against human HT-29 cells xenografted in nude mouse assessed as reduction in tumor growth at 50 mg/kg, po qd for 21 days relative to control

Chain of NAD-dependent protein deacetylase sirtuin-2 (Q8IXJ6 whole entry): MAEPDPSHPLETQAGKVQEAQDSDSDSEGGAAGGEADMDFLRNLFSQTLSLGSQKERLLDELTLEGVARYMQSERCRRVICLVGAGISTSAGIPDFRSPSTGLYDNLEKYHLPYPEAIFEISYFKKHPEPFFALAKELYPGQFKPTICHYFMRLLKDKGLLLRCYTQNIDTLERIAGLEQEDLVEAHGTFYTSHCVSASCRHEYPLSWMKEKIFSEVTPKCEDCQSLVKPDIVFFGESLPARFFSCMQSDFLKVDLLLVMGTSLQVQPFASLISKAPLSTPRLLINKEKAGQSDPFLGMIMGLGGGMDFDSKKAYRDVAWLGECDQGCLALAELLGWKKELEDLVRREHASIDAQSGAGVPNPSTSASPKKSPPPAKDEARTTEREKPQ
Chain of NAD-dependent protein deacetylase sirtuin-3, mitochondrial (Q9NTG7 whole entry): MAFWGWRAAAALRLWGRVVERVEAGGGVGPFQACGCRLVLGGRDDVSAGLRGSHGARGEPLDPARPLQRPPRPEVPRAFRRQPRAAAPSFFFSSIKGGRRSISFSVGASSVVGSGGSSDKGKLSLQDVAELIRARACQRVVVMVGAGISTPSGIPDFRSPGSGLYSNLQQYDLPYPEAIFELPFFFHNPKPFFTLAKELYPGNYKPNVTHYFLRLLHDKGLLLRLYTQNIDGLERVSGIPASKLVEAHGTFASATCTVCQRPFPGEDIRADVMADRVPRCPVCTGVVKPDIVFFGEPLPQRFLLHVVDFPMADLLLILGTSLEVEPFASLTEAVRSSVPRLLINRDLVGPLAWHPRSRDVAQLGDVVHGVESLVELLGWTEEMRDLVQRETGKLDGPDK
Chain of NAD-dependent protein deacetylase sirtuin-1 (Q96EB6 whole entry): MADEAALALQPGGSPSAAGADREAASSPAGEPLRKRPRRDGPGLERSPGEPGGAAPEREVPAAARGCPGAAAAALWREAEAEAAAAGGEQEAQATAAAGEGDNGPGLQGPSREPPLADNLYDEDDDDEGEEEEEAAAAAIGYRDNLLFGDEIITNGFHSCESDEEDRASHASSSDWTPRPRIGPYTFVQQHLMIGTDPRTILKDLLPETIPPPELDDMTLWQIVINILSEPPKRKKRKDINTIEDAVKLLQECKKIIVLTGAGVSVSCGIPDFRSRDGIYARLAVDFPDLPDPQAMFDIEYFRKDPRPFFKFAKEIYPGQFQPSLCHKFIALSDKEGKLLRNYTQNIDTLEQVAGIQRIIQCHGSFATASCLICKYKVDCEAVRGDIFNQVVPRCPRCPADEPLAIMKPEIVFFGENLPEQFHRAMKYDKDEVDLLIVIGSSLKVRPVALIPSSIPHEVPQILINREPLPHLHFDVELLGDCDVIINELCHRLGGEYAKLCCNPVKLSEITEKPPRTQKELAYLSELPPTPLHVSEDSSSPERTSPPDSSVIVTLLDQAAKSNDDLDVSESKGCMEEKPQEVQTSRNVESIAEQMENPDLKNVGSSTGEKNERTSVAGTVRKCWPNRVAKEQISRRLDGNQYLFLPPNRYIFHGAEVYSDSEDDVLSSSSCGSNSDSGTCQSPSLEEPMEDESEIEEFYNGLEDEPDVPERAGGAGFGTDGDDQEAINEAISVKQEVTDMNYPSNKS
Chain of Histone deacetylase 1 (Q13547 whole entry): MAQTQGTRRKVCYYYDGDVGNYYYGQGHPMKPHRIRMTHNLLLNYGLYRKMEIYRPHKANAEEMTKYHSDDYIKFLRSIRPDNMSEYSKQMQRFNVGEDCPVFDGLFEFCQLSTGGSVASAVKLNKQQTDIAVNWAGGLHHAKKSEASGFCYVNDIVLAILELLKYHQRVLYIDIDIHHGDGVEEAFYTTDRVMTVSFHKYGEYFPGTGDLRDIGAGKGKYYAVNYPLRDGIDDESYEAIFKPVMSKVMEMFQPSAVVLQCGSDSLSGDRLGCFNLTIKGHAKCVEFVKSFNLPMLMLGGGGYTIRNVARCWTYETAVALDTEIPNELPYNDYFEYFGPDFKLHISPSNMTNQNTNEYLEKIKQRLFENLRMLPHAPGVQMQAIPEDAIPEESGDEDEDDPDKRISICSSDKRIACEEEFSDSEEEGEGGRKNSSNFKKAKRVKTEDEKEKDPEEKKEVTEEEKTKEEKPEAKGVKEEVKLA

| SMILES | pIC50 [1] | pIC50 [2] | pIC50 [3] | pIC50 [4] | pIC50 [5] | T/C [6] [%] |
| --- | --- | --- | --- | --- | --- | --- |
| CC(C)Cc1sc(-c2nccs2)nc1C(=O)Nc1ccc(/C=C/C(=O)NO)cc1 | 6.18 |  |  |  |  |  |
| Cc1[nH]c2ccccc2c1CCNCc1ccc(/C=C/C(=O)NO)cc1 [PANOBINOSTAT] |  | < 4.70 | < 4.70 | < 4.70 | 8.05 | 93.85 |
